Test results from patent US7745443B2 (Sanofi-Aventis Deutschland GmbH, priority 2002, dated 2010).

molecular target: binding of human von Willebrand factor to europium (Eu)-chelate-labeled chimeric GPIb-Fc protein (Homo sapiens, UniProt P04275+P07359); experiment: Von Willebrand Factor-GPIb Binding Assay (Eu based, botrocetin-induced); conditions: botrocetin-induced binding of Eu-chelate-labeled chimeric GPIb-Fc to immobilized human vWF; IC50 values as specified in the examples
Protocol: Activity of compounds of the formula I was shown by an Eu based binding assay in which the binding of human von Willebrand factor to an europium (Eu)-chelate-labeled chimeric GPIb-Fc protein was induced by botrocetin. The preparation of the Eu-chelate-labeled chimeric GPIb-Fc protein is described in detail in a patent application (Fukuchi et al., EP1074564).
A TBS (Tris buffered saline, 20 mM Tris-HCl (pH 7.4) and 0.15 M NaCl) (50 microl) containing human von Willebrand factor (2.5 microg/ml) was added to each well of 1 96-well plate, and the von Willebrand factor was immobilized as a solid phase overnight at 4 dec. Each well was washed once with TBS (150 microl) and blocked with TBS containing 5% BSA (bovine serum albumin) for about 3 hours. Each well of the plate was washed twice with TBS (150 microl), and then added with 25 microl of an assay buffer (Assay Buffer, 1244-106, produced by Wallac) with the compounds, further added with the assay buffer (25 microl) containing the europium (Eu)-chelate-labeled chimeric GPIb-Fc protein (100 ng/ml), labeled with Eu-N1-ITC (Eu-chelate of N^1-(p-isothiocyanatebenzyl)-diethlenetriamine-N^1,N^2,N^3,N^3-tetraacetic acid, 1244-302, produced by Wallac) and botrocetin (500 ng/ml), and left stand at room temperature for 2 hours. The preparation of the Eu-chelate-labeled chimeric GPIb-Fc protein is described in detail in a patent application (Fukuchi et al., EP1074564). Each well of the plate was washed 5 times with TBS (150 microl) containing 0.05% Tween-20, then added with 100 microl of a fluorescence enhancement buffer (Enhancement Solution, 1244-104, produced by Wallac), and shaken for 1 minute. Then, the amount of europium (Eu) was measured by using a 1420 ARVO multi-label counter (produced by Wallac, measurements time: 1 second).

Chain of binding of human von Willebrand factor to europium (Eu)-chelate-labeled chimeric GPIb-Fc protein (P04275 764-2813 limits assumed, change not shown): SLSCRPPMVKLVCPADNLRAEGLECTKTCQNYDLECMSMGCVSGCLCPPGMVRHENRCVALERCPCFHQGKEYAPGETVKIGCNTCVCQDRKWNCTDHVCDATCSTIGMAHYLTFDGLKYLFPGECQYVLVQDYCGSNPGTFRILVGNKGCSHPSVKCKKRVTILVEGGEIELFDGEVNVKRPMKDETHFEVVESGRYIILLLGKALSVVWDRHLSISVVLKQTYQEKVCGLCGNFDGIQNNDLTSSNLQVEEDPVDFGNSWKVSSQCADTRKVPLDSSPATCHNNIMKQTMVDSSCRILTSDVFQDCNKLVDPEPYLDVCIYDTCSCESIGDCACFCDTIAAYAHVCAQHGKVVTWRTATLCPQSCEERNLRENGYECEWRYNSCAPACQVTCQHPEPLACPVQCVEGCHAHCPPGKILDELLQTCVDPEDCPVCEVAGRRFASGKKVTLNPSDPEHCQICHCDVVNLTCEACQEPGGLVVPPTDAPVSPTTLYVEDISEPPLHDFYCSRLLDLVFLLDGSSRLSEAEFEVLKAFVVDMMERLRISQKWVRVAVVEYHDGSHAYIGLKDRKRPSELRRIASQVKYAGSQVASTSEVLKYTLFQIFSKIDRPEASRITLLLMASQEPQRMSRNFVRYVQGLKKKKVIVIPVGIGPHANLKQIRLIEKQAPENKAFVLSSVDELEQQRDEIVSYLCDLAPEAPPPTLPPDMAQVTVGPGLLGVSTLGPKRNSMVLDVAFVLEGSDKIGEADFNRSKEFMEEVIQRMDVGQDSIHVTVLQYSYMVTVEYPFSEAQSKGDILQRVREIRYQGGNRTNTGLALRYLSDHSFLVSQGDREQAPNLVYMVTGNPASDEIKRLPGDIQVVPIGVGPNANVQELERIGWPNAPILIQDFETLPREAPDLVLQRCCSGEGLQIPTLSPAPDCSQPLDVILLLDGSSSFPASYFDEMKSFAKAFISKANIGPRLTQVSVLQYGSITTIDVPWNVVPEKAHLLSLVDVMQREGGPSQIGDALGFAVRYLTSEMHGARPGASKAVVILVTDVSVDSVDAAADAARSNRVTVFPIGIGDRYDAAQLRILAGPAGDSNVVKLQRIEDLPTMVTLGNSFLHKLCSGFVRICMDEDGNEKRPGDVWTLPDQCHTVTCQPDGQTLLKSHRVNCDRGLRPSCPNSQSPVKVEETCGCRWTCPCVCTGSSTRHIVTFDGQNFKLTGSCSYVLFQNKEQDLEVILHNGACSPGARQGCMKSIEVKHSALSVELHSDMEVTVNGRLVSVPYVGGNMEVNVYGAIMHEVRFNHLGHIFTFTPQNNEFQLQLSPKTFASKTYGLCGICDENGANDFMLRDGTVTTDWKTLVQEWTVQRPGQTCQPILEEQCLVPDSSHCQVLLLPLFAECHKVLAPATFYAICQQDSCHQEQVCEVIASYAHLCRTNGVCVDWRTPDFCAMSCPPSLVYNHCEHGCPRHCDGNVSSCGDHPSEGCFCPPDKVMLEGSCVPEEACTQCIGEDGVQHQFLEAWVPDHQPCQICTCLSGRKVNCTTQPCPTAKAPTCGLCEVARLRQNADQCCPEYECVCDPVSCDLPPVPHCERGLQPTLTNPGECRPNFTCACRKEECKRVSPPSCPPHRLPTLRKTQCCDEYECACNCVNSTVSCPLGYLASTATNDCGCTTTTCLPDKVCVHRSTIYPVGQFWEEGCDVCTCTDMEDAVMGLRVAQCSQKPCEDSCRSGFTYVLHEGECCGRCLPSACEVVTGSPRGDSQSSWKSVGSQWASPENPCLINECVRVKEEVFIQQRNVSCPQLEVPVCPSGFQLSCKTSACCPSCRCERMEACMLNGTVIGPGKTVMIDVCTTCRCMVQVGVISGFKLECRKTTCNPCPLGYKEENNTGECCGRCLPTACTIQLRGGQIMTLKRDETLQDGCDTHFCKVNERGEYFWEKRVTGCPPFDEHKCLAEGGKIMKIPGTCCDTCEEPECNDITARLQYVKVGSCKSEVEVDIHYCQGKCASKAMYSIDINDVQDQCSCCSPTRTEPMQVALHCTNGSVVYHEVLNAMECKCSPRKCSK
Chain of binding of human von Willebrand factor to europium (Eu)-chelate-labeled chimeric GPIb-Fc protein (P07359 17-335 limits assumed, change not shown): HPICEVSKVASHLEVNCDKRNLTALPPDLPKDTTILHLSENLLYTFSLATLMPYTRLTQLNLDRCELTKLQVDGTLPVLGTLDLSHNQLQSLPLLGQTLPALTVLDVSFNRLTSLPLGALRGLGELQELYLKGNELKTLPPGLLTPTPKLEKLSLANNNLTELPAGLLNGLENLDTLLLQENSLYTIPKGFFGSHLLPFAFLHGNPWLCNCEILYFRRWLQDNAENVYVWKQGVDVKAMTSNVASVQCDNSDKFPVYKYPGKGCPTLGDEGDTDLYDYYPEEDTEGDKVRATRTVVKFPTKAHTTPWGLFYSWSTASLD

Going from “4-Amino-N-(4-{[(2-methyl-1H-benzimidazol-5-yl)carbonyl]amino}phenyl)-2-methyl-6-quinolinecarboxamide [Example 28]” to `Cc1cc(NCCC(=O)Nc2ccc3nc(C)cc(N)c3c2)nc(N)n1` [Example 1, 3-(2-Amino-6-methyl-pyrimidin-4-ylamino)-N-(4-amino-2-methyl-quinolin-6-yl)-propionamide], the IC50 rises from 9.56 µM to 24.3 µM (2.5-fold). The first is the more potent here.

Going from `Cc1cc(N)c2cc(NC(=O)c3cccc(Nc4cc(C)[n+](C)c(N)n4)c3)ccc2n1` [Example 2, 2-Amino-4-[3-(4-amino-2-methyl-quinolin-6-ylcarbamoyl)-phenylamino]-1,6-dimethyl-pyrimidin-1-ium] to `Cc1cc(N)c2cc(NC(=O)c3ccc(CNc4cc(C)[n+](C)c(N)n4)cc3)ccc2n1` [Example 3, 2-Amino-4-[4-(4-amino-2-methyl-quinolin-6-ylcarbamoyl)-benzylamino]-1,6-dimethyl-pyrimidin-1-ium], the IC50 rises from 8.84 µM to 92.1 µM (10-fold).

`Cc1cc(N)c2cc(NC(=O)c3ccc(CNC(=O)c4cnccn4)cc3)ccc2n1` [Example 4, Pyrazine-2-carboxylic acid 4-(4-amino-2-methyl-quinolin-6-ylcarbamoyl)-benzylamide] and `Cc1cc(N)c2cc(NC(=O)c3ccc(CNC(=O)c4ccc(N)nc4)cc3)ccc2n1` [Example 5, 6-Amino-N-[4-(4-amino-2-methyl-quinolin-6-ylcarbamoyl)-benzyl]-nicotinamide] are within 1.5-fold of each other in IC50: 75.5 µM for the first, 89.9 µM for the second.

Going from `Cc1cc(N)c2cc(NC(=O)c3ccc(CNC(=O)c4cncc(N5CCCC5)n4)cc3)ccc2n1` [Example 6, 6-Pyrrolidin-1-yl-pyrazine-2-carboxylic acid 4-(4-amino-2-methyl-quinolin-6-ylcarbamoyl)-benzylamide] to `Cc1cc(N)c2cc(C(=O)Nc3ccc(Nc4cc(C)[n+](C)c(N)n4)cc3)ccc2n1` [Example 7, 2-Amino-4-[(4-{[(4-amino-2-methyl-6-quinolinyl)carbonyl]amino}phenyl)amino]-1,6-dimethylpyrimidin-1-ium], the IC50 falls from 47.9 µM to 7.62 µM (6.3-fold).

First: Cc1cc(N)c2cc(C(=O)Nc3cccc(Nc4cc(C)[n+](C)c(N)n4)c3)ccc2n1 [Example 8, 2-Amino-4-[(3-{[(4-amino-2-methyl-6-quinolinyl)carbonyl]amino}phenyl)amino]-1,6-dimethylpyrimidin-1-ium]
Second: Cc1cc(N)c2cc(C(=O)Nc3ccc(CNc4cc(C)[n+](C)c(N)n4)cc3)ccc2n1 [Example 9, 2-Amino-4-[(4-{[(4-amino-2-methyl-6-quinolinyl)carbonyl]amino}benzyl)amino]-1,6-dimethylpyrimidin-1-ium]
The IC50 of the first is 4.1-fold higher: 82.6 µM for the first, 20.1 µM for the second.

Going from `Cc1cc(NCc2ccc(NC(=O)c3ccc4nc(C)cc(N)c4c3)cc2)nc(N)n1` [Example 10, 2-Amino-4-[(4-{[(4-amino-2-methyl-6-quinolinyl)carbonyl]amino}benzyl)amino]-6-methylpyrimidine] to `Cc1cc(N)c2cc(C(=O)Nc3ccc(CNC(=O)c4ccc(Cl)nc4)cc3)ccc2n1` [Example 11, 4-Amino-N-[4-({[(6-chloro-3-pyridinyl)carbonyl]amino}methyl)phenyl]-2-methyl-6-quinolinecarboxamide], the IC50 falls from 68.6 µM to 42.9 µM (1.6-fold).

First: Cc1cc(N)c2cc(C(=O)Nc3ccc(CNC(=O)c4ccccn4)cc3)ccc2n1 [Example 12, 4-Amino-2-methyl-N-(4-{[(2-pyridinylcarbonyl)amino]methyl}phenyl)-6-quinolinecarboxamide]
Second: Cc1cc(N)c2cc(C(=O)Nc3ccc(CNC(=O)c4ccnc(Cl)c4)cc3)ccc2n1 [Example 13, 4-Amino-N-[4-({[(2-chloro-4-pyridinyl)carbonyl]amino}methyl)phenyl]-2-methyl-6-quinolinecarboxamide]
The IC50 of the first is 1.5-fold lower: 58.4 µM for the first, 90.1 µM for the second. The first is the more potent here.

Going from `Cc1cc(N)c2cc(C(=O)Nc3ccc(CNC(=O)c4cncc(Br)c4)cc3)ccc2n1` [Example 14, 4-Amino-N-[4-({[(3-bromo-5-pyridinyl)carbonyl]amino}methyl)phenyl]-2-methyl-6-quinolinecarboxamide] to `Cc1cc(N)c2cc(C(=O)Nc3ccc(CNC(=O)c4nccnc4N)cc3)ccc2n1` [Example 15, 4-Amino-N-[4-({[(3-amino-2-pyrazinyl)carbonyl]amino}methyl)phenyl]-2-methyl-6-quinolinecarboxamide], the IC50 rises from 28.8 µM to 54.7 µM (1.9-fold). The first is the more potent here.

First: Cc1cc(N)c2cc(C(=O)Nc3ccc(NC(=O)c4ccccn4)cc3)ccc2n1 [Example 16, 4-Amino-N-{4-[(2-pyridinylcarbonyl)amino]phenyl}-2-methyl-6-quinolinecarboxamide]
Second: Cc1cc(N)c2cc(C(=O)Nc3ccc(NC(=O)c4cccnc4)cc3)ccc2n1 [Example 17, 4-Amino-N-{4-[(3-pyridinylcarbonyl)amino]phenyl}-2-methyl-6-quinolinecarboxamide]
The IC50 of the first is 2.9-fold higher: 43.2 µM for the first, 15 µM for the second.

First: Cc1cc(N)c2cc(C(=O)Nc3ccc(NC(=O)c4cccnc4Cl)cc3)ccc2n1 [Example 18, 4-Amino-N-(4-{[(2-chloro-3-pyridinyl)carbonyl]amino}phenyl)-2-methyl-6-quinolinecarboxamide]
Second: Cc1cc(N)c2cc(C(=O)Nc3ccc(NC(=O)c4cncc(Br)c4)cc3)ccc2n1 [Example 19, 4-Amino-N-(4-{[(5-bromo-3-pyridinyl)carbonyl]amino}phenyl)-2-methyl-6-quinolinecarboxamide]
The IC50 of the first is 2.5-fold higher: 52.6 µM for the first, 20.9 µM for the second.

First: Cc1cc(N)c2cc(C(=O)Nc3ccc(NC(=O)c4nccnc4N)cc3)ccc2n1 [Example 20, 4-Amino-N-(4-{[(2-amino-3-pyrazinyl)carbonyl]amino}phenyl)-2-methyl-6-quinolinecarboxamide]
Second: Cc1cc(N)c2cc(C(=O)Nc3ccc(NC(=O)c4cccnc4N)cc3)ccc2n1 [Example 21, 4-Amino-N-(4-{[(2-amino-3-pyridinyl)carbonyl]amino}phenyl)-2-methyl-6-quinolinecarboxamide]
The IC50 of the first is 7.8-fold lower: 4.41 µM for the first, 34.4 µM for the second. The first is the more potent here.

Going from `Cc1cc(N)c2cc(C(=O)Nc3ccc(NC(=O)c4ccc(N)nc4)cc3)ccc2n1` [Example 22, 4-Amino-N-(4-{[(2-amino-5-pyridinyl)carbonyl]amino}phenyl)-2-methyl-6-quinolinecarboxamide] to `Cc1cc(N)c2cc(C(=O)Nc3ccc(NC(=O)c4ccc(O)nc4)cc3)ccc2n1` [Example 23, 4-Amino-N-(4-{[(2-hydroxy-5-pyridinyl)carbonyl]amino}phenyl)-2-methyl-6-quinolinecarboxamide], the IC50 rises from 11.1 µM to 42.1 µM (3.8-fold).

Going from `Cc1cc(N)c2cc(C(=O)Nc3ccc(NC(=O)c4cnccn4)cc3)ccc2n1` [Example 24, 4-Amino-N-(4-{[(2-pyrazinyl)carbonyl]amino}phenyl)-2-methyl-6-quinolinecarboxamide] to `Cc1cc(N)c2cc(C(=O)Nc3ccc(NC(=O)c4cnc(Cl)c(Cl)c4)cc3)ccc2n1` [Example 25, 4-Amino-N-(4-{[(2,3-dichloro-5-pyridinyl)carbonyl]amino}phenyl)-2-methyl-6-quinolinecarboxamide], the IC50 rises from 15.2 µM to 22.9 µM (1.5-fold). The first is the more potent here.

`Cc1cc(N)c2cc(C(=O)Nc3ccc(NC(=O)c4ccc(Cl)c(S(N)(=O)=O)c4)cc3)ccc2n1` [Example 26, 4-Amino-N-(4-{[3-(aminosulfonyl)-4-chlorobenzoyl]amino}phenyl)-2-methyl-6-quinolinecarboxamide] and `Cc1cc(N)c2cc(C(=O)Nc3ccc(NC(=O)c4cccc(N(C)C)c4)cc3)ccc2n1` [Example 27, 4-Amino-N-{4-[(3-dimethylaminobenzoyl)amino]phenyl}-2-methyl-6-quinolinecarboxamide] are within 1.5-fold of each other in IC50: 32.8 µM for the first, 46.5 µM for the second.

Compared with `Cc1cc(N)c2cc(C(=O)Nc3ccc(NC(=O)c4ccc(OC5CCNCC5)cc4)cc3)ccc2n1` [Example 29, 4-Amino-N-(4-{[4-(4-piperidinyloxy)benzoyl]amino}phenyl)-2-methyl-6-quinolinecarboxamide], `Cc1cc(N)c2cc(C(=O)Nc3ccc(NC(=O)c4ccc5[nH]c(N)nc5c4)cc3)ccc2n1` [Example 30, 4-Amino-N-(4-{[(2-amino-1H-benzimidazol-5-yl)carbonyl]amino}phenyl)-2-methyl-6-quinolinecarboxamide] is 4.9-fold lower in IC50: 19.8 µM for the first, 4.03 µM for the second.

Going from `Cc1cc(N)c2cc(C(=O)Nc3ccc(NC(=O)c4ccc5nc(N)sc5c4)cc3)ccc2n1` [Example 31] to `Cc1cc(N)c2cc(C(=O)Nc3ccc(NC(=O)c4ccc5[nH]cnc5c4)cc3)ccc2n1` [Example 32, 4-amino-N-{4-[(1H-benzimidazol-5-ylcarbonyl)amino]phenyl}-2-methyl-6-quinolinecarboxamide], the IC50 rises from 2.9 µM to 7.5 µM (2.6-fold). The first is the more potent here.

Going from `Cc1cc(N)c2cc(C(=O)Nc3ccc(NC(=O)c4ccc5nc(N)ccc5c4)cc3)ccc2n1` [Example 33, 4-Amino-N-(4-{[(2-amino-6-quinolinyl)carbonyl]amino}phenyl)-2-methyl-6-quinolinecarboxamide] to `COc1cc(NC(=O)c2ccc3nc(N)ccc3c2)ccc1NC(=O)c1ccc2nc(C)cc(N)c2c1` [Example 34, 4-Amino-N-(4-{[(2-amino-6-quinolinyl)carbonyl]amino}-2-methoxyphenyl)-2-methyl-6-quinolinecarboxamide], the IC50 rises from 1.7 µM to 3.61 µM (2.1-fold).
